From PubChem BioAssay (NCI)
Where “and” joins values, the source holds several entries; their conditions need not be identical. Equal values may be shown once.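 1) Cells in 96-well plates. 2) Compound, 48 h, 5 concentrations. 3) Linear interpolation between surrounding doses. 4) Unreached endpoint = highest concentration. Abbreviation: GI50, concentration required for 50% inhibition of growth. TGI denotes the concentration required for complete inhibition of growth.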

Assays:
Experiment in all cases: DTP human tumour cell line panel, 48 h
[1] = system: OVCAR-5 ovarian
[2] = system: EKVX NSCLC
[3] = system: MDA-N
[4] = system: MDA-MB-231 breast
[5] = system: A549 NSCLC
[6] = system: HCC-2998 colon
[7] = system: OVCAR-8 ovarian
[8] = system: OVCAR-3 ovarian
[9] = system: HT29 colon
[10] = system: SNB-75 CNS

| SMILES | TGI [1] [µM] | TGI [2] [µM] | TGI [3] [µM] | TGI [4] [µM] | TGI [5] [µM] | TGI [6] | TGI [7] | TGI [8] | TGI [9] [µM] | TGI [10] | GI50 [5] [µM] |
| --- | --- | --- | --- | --- | --- | --- | --- | --- | --- | --- | --- |
| CC(C)c1cccc(C(C)C)c1OS(=O)(=O)NC(=O)OC(C(F)(F)F)C(F)(F)F | > 100 | > 100 | > 100 | > 100 | > 100 | > 100 µM | > 100 µM |  |  |  |  |
| OC1c2ccccc2C(O)C2OC12 (stereo not given) | > 100 |  | > 100 | > 100 | > 100 |  | > 100 µM | > 100 µM | > 100 |  |  |
| CCOC(=O)CC[C@H](N)C(=O)N[C@H](Cc1ccc(N(CCCl)CCCl)cc1)C(=O)OCC | 14.7 | 19.1 | > 43.4 | 16.2 | > 100 | 6.21 µM |  | 10.1 µM | 13.3 | 5.89 µM |  |
| CCCCCCCCCCSCC(CO)NC(=O)/C=C/c1c(C)[nH]c(=O)[nH]c1=O (stereo not given) | > 50 | > 42.3 |  |  | > 50 | 7.38 µM and 11.5 µM | 18.6 µM and 10.4 µM | 3.05 µM and 9.12 µM | > 50 | 12.9 µM and 18.1 µM | > 44.4 |
| COP(C)(=O)C(Cc1c[nH]c2ccccc12)NC(=O)OCc1ccccc1 (stereo not given) | > 100 | > 100 | > 100 | > 100 | > 100 | > 100 µM | > 100 µM | > 100 µM | > 100 |  |  |
| COc1ccc(C2C(Cl)C(=O)N2NC(=O)Cc2ccccc2)cc1OC (stereo not given) | > 100 | > 100 |  |  | > 100 | > 100 µM | > 100 µM | > 100 µM | > 100 | > 100 µM |  |
| NC(N)=NCC(N)C(=O)O (stereo not given) | > 100 | > 100 | > 100 | > 100 | > 100 |  | > 100 µM | > 100 µM | > 100 | > 100 µM |  |
| CC1(C)CC[C@]2(C(=O)O)[C@H](O)C[C@]3(C)C(=CC[C@@H]4[C@@]5(C)CC[C@H](OC6OC(C(=O)O)C(O)C(O)C6O)C(C)(C)[C@@H]5CC[C@]43C)[C@@H]2C1 (stereo not given in full) | > 100 | > 100 | > 100 |  | > 100 | > 100 µM | > 100 µM | > 100 µM | > 100 | > 100 µM |  |
| CCN(CC)CCNc1ccc2ncn3c4cc(=O)ccc4c(O)c1c23 | 32.5 | 23 |  |  | 12.1 | 15.6 µM | 7.77 µM | 6.36 µM | 11.5 | 21.6 µM |  |
| CN1B(c2ccccc2)N(C)C(=O)N(C)C1=O | > 100 | > 100 | > 100 |  | > 100 |  | > 100 µM |  | > 100 | > 100 µM |  |
| Cc1cc(C)c(N=Nc2c(O)c(S(=O)(=O)O)cc3cc(S(=O)(=O)O)ccc23)cc1C | > 100 | > 100 | > 100 | > 100 | > 100 |  | > 100 µM | > 100 µM | > 100 | > 100 µM |  |
| Cc1cc(O)c(C(C)C)cc1N=Cc1ccccc1O | 41.2 | 26.8 | 17 | 3.59 | 43 | 14.7 µM | > 29.6 µM | 9.7 µM | > 74 |  |  |
